Molecules are shown by their SMILES. Like-named read-outs stand apart in the source and are kept apart here. Where only a bound is given, the exact number is not on record here.

For series [1], the system named is Chloroquine-resistant P. falciparum K 1-strain. Briefly: Antiplasmodial activity, Malstat (pLDH) assay. It counts as cell-based, Plasmodium falciparum. As to conditions: for IC50: 72 h, read-out: P. falciparum IC50; for P. falciparum SI: selectivity index vs MRC-5 cytotoxicity. How it is done:
(§1) The integrated panel of microbial screens and standard screening methodologies were adopted as previously described. All assays were performed in triplicate at the Laboratory of Microbiology, Parasitology and Hygiene at the University of Antwerp (Belgium). […] Selectivity of activity was assessed by simultaneous evaluation of cytotoxicity on a fibroblast (MRC-5) cell line.
Chloroquine-resistant P. falciparum K 1-strain was cultured in human erythrocytes O^+ at 37 °C under a low oxygen atmosphere (3% O2, 4% CO2, and 93% N2) in RPMI-1640, supplemented with 10% human serum. Infected human red blood cells (200 μL, 1% parasitaemia, 2% haematocrit) were added to each well and incubated for 72 h. After incubation, test plates were frozen at −20 °C. Parasite multiplication was measured using the Malstat assay, a colorimetric method based on the reduction of 3-acetyl pyridine adenine dinucleotide (APAD) by parasite-specific lactate-dehydrogenase (pLDH).

Series [2] relates to L. infantum MHOM/MA(BE)/67 amastigotes. The experiment in a line: Antileishmanial activity, intracellular amastigotes in primary peritoneal mouse macrophages. In kind it is cell-based, Leishmania infantum. The conditions noted are these: for IC50: pure compounds, intracellular amastigotes, 5 days; for L. infantum SI: selectivity index vs MRC-5 cytotoxicity. How it is done:
The integrated panel of microbial screens and standard screening methodologies were adopted as previously described. All assays were performed in triplicate at the Laboratory of Microbiology, Parasitology and Hygiene at the University of Antwerp (Belgium). […] Selectivity of activity was assessed by simultaneous evaluation of cytotoxicity on a fibroblast (MRC-5) cell line. […] L. infantum MHOM/MA(BE)/67 amastigotes were collected from the spleen of an infected donor hamster and used to infect primary peritoneal mouse macrophages. To determine in vitro antileishmanial activity, 3 × 10^4 macrophages were seeded in each well of a 96-well plate. After 2 days outgrowth, 5 × 10^5 amastigotes/well, were added and incubated for 2 h at 37 °C. Pre-diluted plant extracts were subsequently added and the plates were further incubated for 5 days at 37 °C and 5% CO2. Parasite burdens (mean number of amastigotes/macrophage) were microscopically assessed on 500 cells after Giemsa staining of the […] expressed as a percentage of the blank controls without plant extract.

A further series relates to L. donovani. The conditions noted are these: cited from earlier work.
For series [3], the system named is T. cruzi Tulahuen CL2 (benznidazole-sensitive). The experiment in a line: Antitrypanosomal activity, T. cruzi on MRC-5 cells. It counts as cell-based, Trypanosoma cruzi. As to conditions: for IC50: pure compounds, 7 days; for T. cruzi SI: selectivity index vs MRC-5 cytotoxicity. As for the experimental part: as §1
(§2) Trypanosoma brucei Squib-427 strain (suramin-sensitive) was cultured at 37 °C and 5% CO2 in Hirumi-9 medium, supplemented with 10% fetal calf serum (FCS). About 1.5 × 10^4 trypomastigotes/well were added to each well and parasite growth was assessed after 72 h at 37 °C by adding resazurin [35]. For Chagas disease, T. cruzi Tulahuen CL2 (benznidazole-sensitive) was maintained on MRC-5 cells in minimal essential medium (MEM) supplemented with 20 mM L-glutamine, 16.5 mM sodium hydrogen carbonate and 5% FCS. In the assay, 4 × 10^3 MRC-5 cells and 4 × 10^4 parasites were added to each well and after incubation at 37 °C for 7 days, Parasite growth was assessed by adding the […]. The color reaction was read at 540 nm after 4 h and absorbance values were expressed as a percentage of the blank controls.

In series [4] the test system is Trypanosoma brucei Squib-427 strain (suramin-sensitive). The experiment in a line: Antitrypanosomal activity, T. brucei trypomastigotes, resazurin. As to conditions: for IC50: 72 h, pure compounds; for T. brucei SI: selectivity index vs MRC-5 cytotoxicity. It counts as cell-based. How it is done:
as §1, §2
In general terms: Resazurin is reduced to fluorescent resorufin, in cell work by metabolically active cells.

Series [5] in a line: Cytotoxicity against MRC-5 cells, resazurin. In kind it is cell-based. The conditions noted are these: human, MRC-5 SV2 fibroblast cells, pure compounds. As for the experimental part:
as §1
MRC-5 SV2 cells were cultivated in MEM, supplemented with L-glutamine (20 mM), 16.5 mM sodium hydrogen carbonate and 5% FCS. For the assay, 10^4 MRC-5 cells/well were seeded onto the test plates containing the pre-diluted sample and incubated at 37 °C and 5% CO2 for 72 h. Cell viability was assessed fluorimetrically after 4 h of addition of resazurin. Fluorescence was measured (excitation 550 nm, emission 590 nm) and the results were expressed as % reduction in cell viability compared to control.

Another series has as its system T. brucei. Also noted: method as in PMID 21782916, PMID 17637068. The conditions noted are these: ref 24, 25, cited from earlier work.
A further series deals with T. cruzi. The arrangement: method as in PMID 12802734. As to conditions: ref 26; cited from earlier work.
Another series has as its system P. falciparum. The conditions noted are these: cited from earlier work; for IC50: converted value in brackets, read-out: antiplasmodial IC50.
For series [6], the system named is peripheral blood mononuclear cells. Also noted: method as in PMID 22468852. The conditions noted are these: ref 31; cited from earlier work.
Where [7] appears, read: Leishmania infantum, Macrophage, 120 h.
Setting [8] is: Trypanosoma cruzi, TULAHUEN, MRC5, 168 h.
[9] abbreviates: Plasmodium falciparum, pure compounds, K1 strain.
[10] abbreviates: at the highest concentration tested (64 µg/mL).

As usually defined, the IC50 is the concentration at which inhibition is half-maximal. For the compound `CCN(CC)CCCC(C)Nc1ccnc2cc(Cl)ccc12` (stereo not shown) [Chloroquine, reference compound], the IC50 in series [1] (Plasmodium falciparum) stood at 0.3 ± 0.05 µM.

`CCCCCCCCCCCCCCCCOP(=O)([O-])OCC[N+](C)(C)C` [Miltefosine, reference compound]: the IC50 in series [2] (setting [7]) is 10.4 ± 2.1 µM; in the series with L. donovani (ref 31) it was 9.31 µM.

Turning to `O=C(Cn1ccnc1[N+](=O)[O-])NCc1ccccc1` [Benznidazole, reference compound], in series [3] (setting [8]), half-maximal inhibition (IC50) required 1.9 ± 0.3 µM.

For the compound `C[C@H]1[C@H](C)CC[C@]2(C(=O)O)CC[C@]3(C)C(=CC[C@@H]4[C@@]5(C)CC[C@H](O)C(C)(C)[C@@H]5CC[C@]43C)[C@H]12` [Cmpd. 3, 3β-hydroxy-urs-12-en-28-oic acid], the IC50 was 29.7 ± 5.9 µM in [1] (setting [9]); 7.4 ± 1.9 µM in series [2] (setting [7]); 8.8 ± 2.3 µM in [3] (setting [8]); 2.2 ± 0.6 µM in series [4] (Trypanosoma brucei); 2.2 µM in the series with T. brucei (converted value in brackets); 21 µM in the series on T. cruzi. The IC50 was 7.6 µM in the series on L. donovani (converted value in brackets, ref 27); 6.8 µM in the series with P. falciparum (ref 28); 10.7 µM with P. falciparum (ref 29). Besides, in series [1], the “P. falciparum SI” value is on record as less than 1. Besides, the “L. infantum SI” value in series [2] is listed as 1.5. The “T. cruzi SI” value in series [3] amounted to 1.3. Besides, the “T. brucei SI” value in series [4] worked out at 5.2. This compound had an IC50 at 72 h in series [5] of 11.4 ± 2.1 µM. Besides, the “T. brucei IC50” value in the series on T. brucei is on record as 1.0 ± 0.2 µg/mL. The “L. donovani IC50” value in the series with L. donovani (ref 27) is 3.5 µg/mL. The figures for the “antiplasmodial IC50” value with P. falciparum (ref 28) and with P. falciparum (ref 29) were 3.1 µg/mL and 4.9 µg/mL, respectively.

As a reminder, the melting point is the temperature of the solid-liquid transition. In turn, `C[C@H]1[C@H](C)CC[C@@]2(C)[C@@H]1C1=CC[C@@H]3[C@@]4(C)CC[C@H](O)C(C)(C)[C@@H]4CC[C@@]3(C)[C@]1(C)C[C@@H]2O` [Cmpd. 4, urs-12-ene-3β,16β-diol] came in with a melting point of 221 °C. In addition, the 50% inhibitory concentration (IC50) in series [1] (setting [9]) was 9.3 to 9.9 µM. Besides, in series [1] (pure compounds, K1 strain), the concentration for half-maximal inhibition (IC50) worked out at 9.7 ± 3.2 µM. Moreover, the “P. falciparum SI” value in series [1] is on record as more than 6.6. Also, the “P. falciparum SI” value in [1] (listed as Brein (4)) is reported as more than 6.5. Also, the half-inhibitory concentration (IC50) in series [2] (setting [7]) was 9.3 to 9.9 µM. Moreover, in series [2], the concentration for half-maximal inhibition (IC50) was 9.3 ± 2.2 µM and the “L. infantum SI” value is given as more than 6.9. In addition, the “L. infantum SI” value in [2] (listed as Brein (4)) is listed as more than 6.5. In [3] (setting [8]), this compound came in with an IC50 of 9.3 to 9.9 µM. Further, in series [3], the IC50 came out at 9.9 ± 2.6 µM and the “T. cruzi SI” value is more than 6.5. Further, the “T. cruzi SI” value in series [3] (listed as Brein (4)) was more than 6.5. For the same compound, the half-maximal inhibitory concentration (IC50) in [4] (Trypanosoma brucei) was found to be 2.3 ± 0.4 µM. In series [4], the “T. brucei SI” value is given as more than 27.8. For the same compound, the “T. brucei SI” value in [4] (listed as Brein (4)) is more than 27.8. The same compound had an IC50 at 72 h in series [5] of more than 64 µM.

In the case of `C[C@@H]1CC[C@]2(C)CC[C@]3(C)C(=C[C@@H](O)C4[C@@]5(C)CC[C@H](O)C(C)(C)C5CC[C@]43C)C2[C@H]1C` (stereo partly drawn) (hydrate or solvate) [Cmpd. 5, 3β,11α-Dihydroxyurs-12-ene], the melting point is 205 °C.

The compound `Cc1ccc(C(=O)Nc2ccc(S(=O)(=O)O)c3cc(S(=O)(=O)O)cc(S(=O)(=O)O)c23)cc1NC(=O)c1cccc(NC(=O)Nc2cccc(C(=O)Nc3cc(C(=O)Nc4ccc(S(=O)(=O)O)c5cc(S(=O)(=O)O)cc(S(=O)(=O)O)c45)ccc3C)c2)c1` [Suramine, reference compound] gave an IC50 in series [4] (Trypanosoma brucei) of 0.03 ± 0.01 µM.

For `C[C@@H]1CC[C@]2(C)CC[C@]3(C)C(=C[C@@H](O)C4[C@@]5(C)CC[C@H](O)C(C)(C)C5CC[C@]43C)C2[C@H]1C` (stereo partly drawn) [Cmpd. 5, 3β,11α-Dihydroxyurs-12-ene], the IC50 was 23.9 ± 5.7 µM in series [1] (setting [9]); 3.2 ± 0.9 µM in series [2] (setting [7]); 8.1 ± 1.8 µM in series [3] (setting [8]); 7.9 µM in series [4] (Trypanosoma brucei); 7.8 ± 1.8 µM in series [4]. For the same compound, the “L. infantum SI” value in series [2] and in series [2] (listed as Compound 5) was more than 20 in each case. The “T. cruzi SI” value in series [3] is recorded as more than 7.9. Besides, the “T. brucei SI” value in series [4] is more than 8.2. The compound also returned a concentration for half-maximal inhibition (IC50) at 72 h in series [5] of more than 64 µM.

Take `C[C@@H]1CCC23CC[C@]4(C)[C@@](C=CC5[C@@]6(C)CC[C@H](O)C(C)(C)C6CC[C@]54C)(OC2=O)C3[C@H]1C` (stereo partly shown) [Cmpd. 6, 3-Hydroxy-13,28-epoxyurs-11-en-28-one]: the 50% inhibitory concentration (IC50) was more than 64 µM in series [1] (setting [9]); more than 64 µM in [2] (setting [7]); more than 64 µM in series [3] (setting [8]); 40.9 ± 8.1 µM in series [4] (Trypanosoma brucei); 192 µM with L. donovani (ref 31). The “antiprotozoal activity (P. falciparum)” value in series [1] (setting [10]) is recorded as “devoid of any antiprotozoal activity”. Moreover, in series [2] (setting [10]), the “antiprotozoal activity (L. infantum)” value is “devoid of any antiprotozoal activity”. Moreover, in [3] (setting [10]), the “antiprotozoal activity (T. cruzi)” value is “devoid of any antiprotozoal activity”. For the same compound, the IC50 at 72 h in [5] is more than 64 µM. In series [6], the “cytotoxicity towards peripheral blood mononuclear cells” value is recorded as “without cytotoxicity”.

The values above are taken from article PMC6269755, “In Vitro Antiprotozoal Activity of Triterpenoid Constituents of Kleinia odora Growing in Saudi Arabia” (Molecules, 2013).
